Test results: paper PMC7944397 (ACS infectious diseases, 2021)
Read-outs that look alike come from different tables or passages of the source.

Key:
cathepsin L = cathepsin L (Homo sapiens, UniProt P07711); experiment: FRET enzymatic assay; assay type: biochemical
MERS-CoV M^pro [1] = target: T1, MERS-CoV M^pro (Human betacoronavirus 2c EMC/2012, UniProt K0BWD0); assay type: biochemical; conditions: read-out: KI
MERS-CoV M^pro [2] = target: T1, MERS-CoV M^pro; experiment: biochemical

Sequence of cathepsin L (P07711 114-288): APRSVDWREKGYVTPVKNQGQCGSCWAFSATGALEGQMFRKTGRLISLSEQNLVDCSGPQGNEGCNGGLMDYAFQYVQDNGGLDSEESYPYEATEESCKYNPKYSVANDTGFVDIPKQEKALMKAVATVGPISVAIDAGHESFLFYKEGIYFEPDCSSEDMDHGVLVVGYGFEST
Sequence of cathepsin L (P07711 292-333): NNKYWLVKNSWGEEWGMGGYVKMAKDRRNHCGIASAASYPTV
T1 sequence (K0BWD0 3248-3553 limits assumed): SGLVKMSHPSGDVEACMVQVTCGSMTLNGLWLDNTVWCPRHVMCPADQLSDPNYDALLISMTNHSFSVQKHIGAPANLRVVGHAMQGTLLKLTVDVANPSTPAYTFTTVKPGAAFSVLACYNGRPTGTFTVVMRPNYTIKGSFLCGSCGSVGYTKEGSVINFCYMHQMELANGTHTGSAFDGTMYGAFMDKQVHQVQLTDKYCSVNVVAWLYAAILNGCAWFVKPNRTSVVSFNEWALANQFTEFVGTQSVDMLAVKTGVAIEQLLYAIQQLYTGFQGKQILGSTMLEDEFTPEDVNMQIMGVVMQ

Structure (SMILES)	IC50 (cathepsin L) [nM]	KI (inactivation) (MERS-CoV M^pro [1]) [nM]	IC50 (cathepsin L; individual value only in figure)	Ki (MERS-CoV M^pro [2]) [nM]
CC(C)C[C@H](NC(=O)[C@@H]1O[C@H]1C(=O)O)C(=O)NCCCCN=C(N)N [E-64, reference compound]	5.45	–	–	–
CC(C)(C)NC(=O)N[C@H](C(=O)N1C[C@H]2[C@@H]([C@H]1C(=O)NC(CC1CCC1)C(=O)C(N)=O)C2(C)C)C(C)(C)C (some centres unmarked) [boceprevir]	153	1650 ± 120	–	–
CCCC(NC(=O)[C@H](CC(C)C)NC(=O)OCc1ccccc1)C(=O)C(=O)NCc1ccccn1 (some centres unmarked) [calpain inhibitor XII]	–	–	calpain inhibitors II and XII and GC-376 had potent inhibition against cathepsin L	1320 ± 70
